Compound | melting point
CC1=C2C=c3c(cnn3CC(C)N=[N+]=[N-])=C2CC=C1 (racemic) | 70 to 72 °C
Cc1cnc(CCC(C)C#N)c(N)c1 (stereo not given) | 112 to 114 °C
N#Cc1ccc(C(F)(F)F)cc1N=NN(C(=O)Nc1ccccc1)c1cc(C(F)(F)F)ccc1C#N | 157 to 158 °C
C=CC(C)(O)CN1CCC2(CC1)CSC1=C(O2)c2ccccc2C(=O)C1=O (stereo not given) | 74 to 77 °C
CC1c2ccccc2CCON1C(N)=O (stereo not given) | 128 to 129 °C
C#CCN(C(=O)C1CC1)c1cccc(-c2ccnc3c(C(=O)c4cccs4)cnn23)c1 | 221 to 223 °C
O=[N+]([O-])c1cc2nc(O)c(O)nc2c2c1CCCC2 | > 300 °C
COC(=O)C(C)Nc1ccc(F)c(F)c1F (stereo not given) | 41 to 43 °C
CN1CC=C(c2cccc3ccc(N(Cc4ccccc4)Cc4ccccc4)cc23)CC1 | 124 to 126 °C
CC(C)CN1c2ccccc2C(C)(C)C12C=Nc1c(cc(N3CCc4ccccc43)c3ccccc13)O2 (stereo not given) | 167 to 168 °C
N#CC(C(=O)Nc1cccnc1)C(=O)c1nn(-c2ccccc2)c2c1COc1ccccc1-2 (stereo not given) | 280 to 282 °C
O=[N+]([O-])c1cc(C(F)(F)F)ccc1S(=O)(=O)NCC(O)(Cn1cncn1)c1ccc(Cl)cc1Cl (stereo not given) | 97 to 105 °C
O=C1CCc2cc(Br)c(NC(=O)C(F)(F)F)cc21 | 220 °C
O=C(Nc1nccs1)c1cnc2c(C(F)(F)F)cccc2c1O | 325 °C
CC(CC(C(=O)N(C)C)(c1ccccc1)c1ccccc1)N1CCC(NC(=O)c2cnc[nH]2)C(O)C1 (stereo not given) | 155 °C
O=c1c2ccc(O)cc2oc2c1oc1ccccc12 | > 300 °C
O=C1NC(=O)C(Cc2cc(Cl)ccc2[N+](=O)[O-])N1 (stereo not given) | 184 to 186 °C
Cn1cc(C2=C(c3c4n(c5ccccc35)CC(NC(=O)OC(C)(C)C)CC4)C(=O)OC2=O)c2ccccc21 (stereo not given) | 141 to 145 °C
Cc1cc(O)c(S(=O)CC(C)C)c(=O)o1 (stereo not given) | 102 to 103 °C
CN(C)c1cccc(CN2CC=C(c3c[nH]c4ccc(Cl)cc34)CC2)c1 | 193 to 195 °C

Further lines, results first:

melting point | Compound
106 °C | CCOC(=O)C(=CNc1scc(C)c1C(=O)OC)C(=O)OCC
250 °C | Cc1ccc(-c2ccc(C)c(C(N)=O)c2N)cc1
114 to 116 °C | CCCN(CCC)C(=O)C(CCC(=O)N(C)C)NC(=O)C=Cc1ccco1 (stereo not given)
148 to 149 °C | CCOC(=O)C(C#N)=C1CC(C)(C)c2cc(OC)c(OC)cc21
40 °C | COC(=O)/C=C(\Cl)c1ccc(Cl)cc1
92 to 94 °C | CCCCCCC(=N)NC(=S)Nc1ccc(Cl)c([N+](=O)[O-])c1
132 to 144 °C | CCOC(=O)c1c(CCl)nc2sc(C)c(C)c2c1-c1ccc(Cl)cc1
258 °C | COc1ccccc1C(=O)Nc1ccccc1C(c1ccc(O)cc1)c1ccc(O)cc1
138 to 139 °C | CCCC(=O)c1ccc(OCCC(=O)O)c(Cl)c1Cl
69 to 70 °C | Nc1ccc(CCc2cscn2)cc1
104 to 106 °C | N#Cc1ccc(Cc2ccc(OCC3CCCCC3)cc2)cc1
> 300 °C | O=C(CCl)Nc1ccc2ncnc(Nc3cccc(Br)c3)c2c1
177 to 179 °C | CCCn1c(COCC)nc2c(N)nc3ccc(OC4CCN(C(=O)C(C)C)CC4)cc3c21
133 °C | COC(=O)c1ccc(/C=C/C(=O)NOC2CCCCO2)cc1 (stereo not given)
165 to 167 °C | CC(C)Cc1nn(C)c(=O)c2cc(C(O)c3cccc4ccccc34)sc12 (stereo not given)
135 °C | CCCCCOc1ccc(CCOc2ccc(/C=C(\OCC)C(=O)O)cc2OC)cc1
114 to 116 °C | CN(C)C(=O)c1cc2ccccc2c(-c2ccccc2)n1
98 to 101 °C | C[Si](C)(C)O[C@@]1(C(F)(F)F)OCN(C(=O)OCc2ccccc2)[C@H]1Cc1ccccc1
210 to 212 °C | COc1ccc2c(c1OC)C(C)NC(=O)N2 (stereo not given)
71 to 72 °C | CCCn1nc(OCc2ccc3ccccc3n2)cc1C(=O)OC

From a melting point compilation (Tetko et al.; mined from patent text by program, amines drawn as free bases though some values may be those of a salt)
